Measurements taken from patent US12702650B2, “Methods and compositions for treating smith-magenis syndrome” (The Regents of the University of California, priority 2019, dated 2026).

Legend:
[1] = test system: Lgl1^+/− mice; assay: three-chamber social interaction test after NMDAR blocker injection; assay type: in vivo, mouse
Description: Pharmacological blockers of NMDARs were used, and animals tested in the three-chamber social interaction test.
Social interaction test—The social interaction test was performed as previously described (Yang et al., 2011). The sociability apparatus (Stoetling) has three 20 cm×40 cm chambers and two target enclosures 7 cm in diameter and 15 cm tall. During testing, the apparatus was surrounded by opaque panels to prevent mice from seeing out of the apparatus.
Animals were placed in the center chamber of the 3-chambered sociability apparatus with the doors between chambers closed for 10 minutes to habituate to the testing conditions. The doors were removed, and mice were allowed to explore the full field for 10 minutes. Non-littermate strain- and age-matched target mice from a separate cage were introduced during the social interaction phase of the test. For the social novelty phase, target mice from the social interaction phase were kept in the same location and a novel target mouse was introduced to the opposite chamber. For scoring of interaction time, ROIs containing the target mouse and novel object were selected in MATLAB. ROIs were selected by experimenters blinded to the animal genotypes or virus treatment.
Scoring for distance travelled and thigmotaxis during the open field test, as well as time spent interacting with objects in the Novel Object Recognition test and time spent interacting with target mice and objects in the Social Interaction test was performed using Autotyping 15.04 in MATLAB 2014b (Patel et al., 2014)(MathWorks).

[2] = test system: Lgl1^+/− mice; assay: nestlet shredding (stereotyped repetitive behavior); assay type: in vivo, mouse; settings: Lgl1^+/+ and Lgl1^+/− mice; ketamine injection vs saline
Description: Nestlet shredding—Mice were removed from their home cage and placed individually into a clean novel cage containing a weighed piece of cotton nesting material of approximately 2.8 g. Mice were left in the cage for 60 minutes. At the end of the testing period, mice were returned to their home cage. Shredded material was separated from the undisturbed portion, which was weighed (Li et al., 2006).

## C[C@]12N[C@H](Cc3ccccc31)c1ccccc12 [MK-801, dizocilpine]
[1]; intraperitoneal injection of 0.3 mg/kg MK-801
  preference for social interaction (social interaction phase): strongly preferred social interaction

## CNC1(c2ccccc2Cl)CCCCC1=O (stereo not shown) [ketamine]
[1]; intraperitoneal injection of 30 mg/kg ketamine, compared with control animals
  preference for social interaction (social interaction phase): clear preference for social interaction
[2]
  nestlet-shredding activity: did not change

## CC12CC3CC(C)(C1)CC(N)(C3)C2 [memantine]
[1]; intraperitoneal injection of 20 mg/kg memantine
  preference for social interaction (social interaction phase): strongly preferred social interaction
